Patent US7994311B2, “Fluorescent chemosensors for metals based on dipyrrins” (priority 2006, dated 2011)

Columns and labels:
[1] = Fluorescence response of (4) to Zn^2+ concentration; assay type: binding; conditions: fluorescence emission
From the text: We believe that the steric strain in conformations that would allow the orbital alignment needed for conjugation may be detrimental to high quantum yield. 1-pyrenyldipyrrin ((4), PYDPY1), is more fluorescent and sterically less demanding than (3). […] Indeed, as a Zn^2+ sensor, (4) is unsurpassed in its effective concentration range with Zn^2+, thus providing a rarely found degree of sensitivity.
FIG. 5 is a graph of fluorescence response and Zn^2+ concentration and (4).

[2] = Fluorescence quantum yield of dipyrrins, free and with Zn^2+; conditions: even with Cd^2+; Table 1, FIG. 2
From the text: The conjugated (2) comprises a fluorophore with the […] moiety behaving as an ionphore. Benzaldehyde was used to form (2) because the properties shown by this type of sensing molecule with an benzene ring are representative of the general behavior of the family of compounds. In spite of the low fluorescence quantum yields of benzene, substituting benzene (ΦF=0.05±0.02) with a more intrinsically luminescent unit can make a great improvement in ΦF. An examples of another aromatic entity used instead of benzene is anthracene (ΦF0.27±0.03). When a […] attached to the benzene ring, the fluorescence quantum yield (ΦF) of (2) was very low and was determined to be 0.0011 due to the photo-induced electron transfer (PET), which is the intra-molecular quenching mechanism of an enamine group and an imine group in conjugate. When Zn^2+ bound with a […] moiety, PET was hindered and fluorescence emission intensity was recovered. […] Zn^2+, the fluorescence quantum yield was determined to be 0.07. […] (2), (3) and (4). The excitation wavelengths were 432, 475, 450 nm. The emission wavelengths were 496, 612, 497 and 599 nm for (2), (3) and (4). The ratio of fluorescence quantum yield [fluorescence quantum yield of metal ion/(2), (3) or (4) complex over fluorescence quantum yield of free ligand (10 μM)] was measured in acetonitrile.

[3] = Zn^2+ binding / complex formation (qualitative)

Kd [1] [µM] | binding of Zn^2+ (in words) [3] | Structure (SMILES) | selectivity for Zn^2+ in comparison to other common metal ions [2]
20 | – | C1=CC(=C(c2ccc[nH]2)c2ccc3ccc4cccc5ccc2c3c45)N=C1 [(4), 1-pyrenyldipyrrin] | –
– | found to bind Zn^2+ | C1=CC(=C(c2ccccc2)c2ccc[nH]2)N=C1 [Compound (2), 5-phenyl-4,6-dipyrrin] | Excellent selectivity
